Results taken from patent US8927550B2, “Heterocyclic compounds as CCR1 receptor antagonists” (Boehringer Ingelheim International GmbH, priority 2009, dated 2015).

Target: T1, CCR1 (Homo sapiens, UniProt P32246)
T1 construct: host or cells: Non-adherent cells
T1 sequence (P32246 1-355): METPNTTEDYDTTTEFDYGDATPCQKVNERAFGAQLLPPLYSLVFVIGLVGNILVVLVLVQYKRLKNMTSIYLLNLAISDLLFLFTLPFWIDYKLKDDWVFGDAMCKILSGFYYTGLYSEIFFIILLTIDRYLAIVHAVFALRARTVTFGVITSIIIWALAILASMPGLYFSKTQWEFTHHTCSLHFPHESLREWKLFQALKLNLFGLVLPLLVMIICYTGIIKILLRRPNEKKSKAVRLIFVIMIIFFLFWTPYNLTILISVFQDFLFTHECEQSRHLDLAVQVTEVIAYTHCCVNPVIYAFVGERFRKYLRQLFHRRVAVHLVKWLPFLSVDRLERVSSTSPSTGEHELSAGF
Experiment: Calcium flux in CCR1 transfected cells, Method A (Fluo-4 NW dye, FLIPR TETRA), MIP-1 alpha at EC80
Type: cell-based
Conditions: cells stably expressing recombinant CCR1 and G-alpha-16, 1 hour at room temperature
Method: Compounds are assessed for the ability to block the interaction of CCR1 and MIP-1α in a functional cellular assay measuring calcium flux in CCR1 transfected cells.
Method A: Non-adherent cells purchased from Chemicon Corporation (HTS005C), stably expressing recombinant CCR1 and G-alpha-16 are grown in RPMI 1640 medium (Mediatech 10-080-CM) supplemented with 10% heat-inactivated FBS, 0.4 mg/mL Geneticin and penicillin/streptomycin. On the day of the assay, the cells are transferred to a beaker and dye-loaded in bulk using a Fluo-4 NW Calcium Assay Kit with probenecid (Invitrogen F36205) at 0.8E6 cells/mL for 1 hour at room temperature. After 1 hour, they are seeded in a 384-well tissue culture-treated plate at a density of 20,000 cells/well. Appropriately diluted test compound is added to the well to achieve a top concentration of 3,000 nM (diluted 4-fold with 10 doses total). The final concentration of DMSO is 1%. The buffer is HBSS (Invitrogen 14025) with 20 mM HEPES at pH 7.4. The cells are allowed to incubate 1 hour in the dark at room temperature. The plates are transferred to the FLIPR TETRA where MIP-1 alpha in 1% BSA is added at the EC80 final concentration. Wells+/−MIP-1 alpha containing diluted DMSO instead of compound serve as the controls. Intracellular calcium flux is recorded on the FLIPR TETRA, using excitation at 470/495 nm and emission at 515/575 nm. Data are analyzed using Activity Base software.

Compound	IC50
O=C(NCc1cccc(C(F)(F)F)c1)c1cccn2c(-c3ccc(Cl)c(Cl)c3)ncc12 [3-(3,4-Dichlorophenyl)-imidazo[1,5-a]pyridine-8-carboxylic acid 3-trifluoromethyl-benzylamide]	810 nM
CS(=O)(=O)c1cccc(CNC(=O)c2cccn3c(-c4ccc(F)cc4)ncc23)c1 [3-(4-Fluorophenyl)-imidazo[1,5-a]pyridine-8-carboxylic acid 3-methanesulfonyl-benzylamide]	305 nM
O=C(NCc1cccc(C(F)(F)F)c1)c1cccn2c(-c3ccc(F)cc3)ncc12 [3-(4-Fluorophenyl)-imidazo[1,5-a]pyridine-8-carboxylic acid 3-trifluoromethyl-benzylamide]	18 nM

Next, values leading:

IC50	Compound
11 nM	O=C(NCc1ccnc(Br)c1)c1cccn2c(-c3ccc(F)cc3)ncc12 [3-(4-Fluorophenyl)-imidazo[1,5-a]pyridine-8-carboxylic acid (2-bromopyridin-4-ylmethyl)-amide]
285 nM	CS(=O)(=O)c1cc(CNC(=O)c2cccn3c(-c4ccc(F)cc4)ncc23)ccn1 [3-(4-Fluorophenyl)-imidazo[1,5-a]pyridine-8-carboxylic acid (2-methanesulfonyl-pyridin-4-ylmethyl)-amide]
428 nM	O=C(NCc1ccc(Br)nc1)c1cccn2c(-c3ccc(F)cc3)ncc12 [3-(4-Fluorophenyl)-imidazo[1,5-a]pyridine-8-carboxylic acid (6-bromopyridin-3-ylmethyl)-amide]
568 nM	CS(=O)(=O)c1ccc(CNC(=O)c2cccn3c(-c4ccc(F)cc4)ncc23)cn1 [3-(4-Fluorophenyl)-imidazo[1,5-a]pyridine-8-carboxylic acid (6-methanesulfonyl-pyridin-3-ylmethyl)-amide]
7 nM	CCCC(NC(=O)c1cccn2c(-c3ccc(F)cc3)ncc12)c1ccc(S(C)(=O)=O)nc1 (centres unmarked) [3-(4-Fluorophenyl)-imidazo[1,5-a]pyridine-8-carboxylic acid [1-(6-methanesulfonyl-pyridin-3-yl)-butyl]-amide]
